ChEMBL document CHEMBL5303573, “Mapping human microbiome drug metabolism by gut bacteria and their genes” (Nature, 2019)

How the values were obtained:
Assay type in all cases: ADME
Design in all cases: dose 2 uM
Conditions in all cases: 2 µM
[1] = molecular target: T1, Sialic acid-specific 9-O-acetylesterase (Bacteroides thetaiotaomicron, UniProt Q8A0D0); assay: (§1) The drug is tested on Bacteroides thetaiotaomicron strain: VPI-5482 for biotransformation. The drug concentrations were measured before and after a 12-h incubation by liquid-chromatography-coupled mass spectrometry (LC–MS)
T1 sequence (Q8A0D0 whole entry): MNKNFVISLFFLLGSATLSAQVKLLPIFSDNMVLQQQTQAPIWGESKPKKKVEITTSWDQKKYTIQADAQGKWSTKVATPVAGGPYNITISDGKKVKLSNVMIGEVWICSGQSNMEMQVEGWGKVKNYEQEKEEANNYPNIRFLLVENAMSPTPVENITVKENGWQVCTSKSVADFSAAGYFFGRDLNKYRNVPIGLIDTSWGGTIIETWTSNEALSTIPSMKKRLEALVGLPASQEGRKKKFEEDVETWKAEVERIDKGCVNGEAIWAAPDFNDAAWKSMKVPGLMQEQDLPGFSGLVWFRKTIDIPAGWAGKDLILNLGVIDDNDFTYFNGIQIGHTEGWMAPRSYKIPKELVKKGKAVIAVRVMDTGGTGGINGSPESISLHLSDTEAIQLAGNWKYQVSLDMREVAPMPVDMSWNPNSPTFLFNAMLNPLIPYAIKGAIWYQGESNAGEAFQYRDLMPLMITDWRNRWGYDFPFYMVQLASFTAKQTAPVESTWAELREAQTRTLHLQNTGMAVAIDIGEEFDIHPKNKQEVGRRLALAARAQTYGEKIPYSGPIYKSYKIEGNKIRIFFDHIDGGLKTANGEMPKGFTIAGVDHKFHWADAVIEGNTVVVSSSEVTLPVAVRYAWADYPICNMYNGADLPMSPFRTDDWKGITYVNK

Acyltransferase = molecular target: T2, Acyltransferase (Bacteroides thetaiotaomicron, UniProt Q8A575); assay: as §1
T2 sequence (Q8A575 whole entry): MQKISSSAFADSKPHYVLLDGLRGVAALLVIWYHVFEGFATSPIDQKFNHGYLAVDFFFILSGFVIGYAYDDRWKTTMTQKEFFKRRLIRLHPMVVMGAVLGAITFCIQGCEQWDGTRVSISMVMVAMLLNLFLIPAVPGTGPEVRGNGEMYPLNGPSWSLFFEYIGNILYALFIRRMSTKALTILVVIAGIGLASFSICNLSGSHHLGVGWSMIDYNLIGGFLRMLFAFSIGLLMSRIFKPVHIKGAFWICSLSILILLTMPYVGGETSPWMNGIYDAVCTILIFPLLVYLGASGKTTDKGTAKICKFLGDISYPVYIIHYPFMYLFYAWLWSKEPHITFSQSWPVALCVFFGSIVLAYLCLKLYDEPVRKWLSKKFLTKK

Xylanase = molecular target: T3, Xylanase (Bacteroides thetaiotaomicron, UniProt Q8A8H5); assay: as §1
T3 sequence (Q8A8H5 whole entry): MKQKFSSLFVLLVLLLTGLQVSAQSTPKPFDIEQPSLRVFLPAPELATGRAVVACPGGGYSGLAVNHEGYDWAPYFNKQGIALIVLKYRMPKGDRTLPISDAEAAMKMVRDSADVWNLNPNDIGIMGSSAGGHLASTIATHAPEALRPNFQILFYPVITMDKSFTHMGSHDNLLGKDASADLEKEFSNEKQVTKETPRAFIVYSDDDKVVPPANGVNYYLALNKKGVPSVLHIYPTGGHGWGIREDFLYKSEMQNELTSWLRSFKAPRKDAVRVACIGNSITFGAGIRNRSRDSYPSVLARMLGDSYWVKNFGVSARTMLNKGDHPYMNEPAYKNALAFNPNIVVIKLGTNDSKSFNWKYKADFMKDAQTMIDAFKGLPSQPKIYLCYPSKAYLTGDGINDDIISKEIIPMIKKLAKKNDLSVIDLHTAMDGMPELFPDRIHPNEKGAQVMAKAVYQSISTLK

[2] = molecular target: T4, Acetyl esterase (Acetylxylosidase) (Bacteroides thetaiotaomicron, UniProt Q8ABF8); assay: as §1
T4 sequence (Q8ABF8 whole entry): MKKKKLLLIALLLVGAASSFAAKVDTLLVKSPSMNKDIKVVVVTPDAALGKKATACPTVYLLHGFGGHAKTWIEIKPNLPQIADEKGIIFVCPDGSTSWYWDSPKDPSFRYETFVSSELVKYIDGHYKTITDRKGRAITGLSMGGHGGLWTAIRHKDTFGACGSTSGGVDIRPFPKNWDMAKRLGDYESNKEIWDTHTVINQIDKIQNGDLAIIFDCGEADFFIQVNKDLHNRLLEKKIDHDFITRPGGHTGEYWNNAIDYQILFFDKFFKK

Acylhydrolase = molecular target: T5, Acylhydrolase (Bacteroides thetaiotaomicron, UniProt Q8AA96); assay: as §1
T5 sequence (Q8AA96 whole entry): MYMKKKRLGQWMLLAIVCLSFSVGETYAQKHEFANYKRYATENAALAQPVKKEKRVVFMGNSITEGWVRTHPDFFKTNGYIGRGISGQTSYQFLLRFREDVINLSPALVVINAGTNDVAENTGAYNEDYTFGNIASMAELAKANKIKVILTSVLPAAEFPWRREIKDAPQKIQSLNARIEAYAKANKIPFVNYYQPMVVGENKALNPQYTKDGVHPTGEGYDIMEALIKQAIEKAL

Lipoprotein = molecular target: T6, Lipoprotein (Bacteroides thetaiotaomicron, UniProt Q8A343); assay: as §1
T6 sequence (Q8A343 whole entry): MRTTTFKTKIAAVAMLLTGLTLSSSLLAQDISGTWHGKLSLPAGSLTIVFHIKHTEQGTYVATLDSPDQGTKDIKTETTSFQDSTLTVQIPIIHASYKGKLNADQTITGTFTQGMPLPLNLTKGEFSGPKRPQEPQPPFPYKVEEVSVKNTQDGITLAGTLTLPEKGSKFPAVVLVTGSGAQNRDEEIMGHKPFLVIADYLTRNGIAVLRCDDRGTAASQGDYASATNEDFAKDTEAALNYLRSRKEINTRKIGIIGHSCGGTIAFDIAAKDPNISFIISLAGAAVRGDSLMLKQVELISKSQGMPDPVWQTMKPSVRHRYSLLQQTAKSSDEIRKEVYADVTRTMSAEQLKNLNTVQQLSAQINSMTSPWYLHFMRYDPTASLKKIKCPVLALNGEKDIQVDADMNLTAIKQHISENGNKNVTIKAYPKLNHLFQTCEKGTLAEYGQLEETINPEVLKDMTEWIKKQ

[3] = molecular target: T7, NADH dehydrogenase/NAD(P)H nitroreductase (Bacteroides thetaiotaomicron, UniProt Q8A8L9); assay: as §1
T7 sequence (Q8A8L9 whole entry): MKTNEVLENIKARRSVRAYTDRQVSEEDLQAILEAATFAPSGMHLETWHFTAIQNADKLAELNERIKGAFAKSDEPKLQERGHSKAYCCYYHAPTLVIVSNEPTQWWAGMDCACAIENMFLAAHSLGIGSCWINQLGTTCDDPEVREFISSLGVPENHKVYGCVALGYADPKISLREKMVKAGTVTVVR

Structure (SMILES): CCS(=O)(=O)CCn1c([N+](=O)[O-])cnc1C [TINIDAZOLE]
- Bacterial Biotransformation [1]: Compound NOT metabolized
- Bacterial Biotransformation (Acyltransferase): Compound NOT metabolized
- Bacterial Biotransformation (Xylanase): Compound NOT metabolized
- Bacterial Biotransformation [2]: Compound NOT metabolized
- Bacterial Biotransformation (Acylhydrolase): Compound NOT metabolized
- Bacterial Biotransformation (Lipoprotein): Compound NOT metabolized
- Bacterial Biotransformation [3]: Compound metabolized
